Where “and” joins values, the source holds several entries; their conditions need not be identical. Equal values may be shown once.
What was measured:
SfurOBP1 = SfurOBP1 (Sogatella furcifera, UniProt V5T8N5); assay: biochemical; format: binding; details: for Fluorescence competitive binding assay, fluorescence intensity: OBP1, three replicate columns
Method in brief: (§1)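 1-NPN displacement assay with odorant competitor at 2–20 µM; protein and probe both 2.0 µM at pH 7.4. Ki is calculated from IC50 using the protein/1-NPN dissociation constant.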

SfurOBP2 = SfurOBP2 (Sogatella furcifera, UniProt V5T759); assay: biochemical; format: binding
SfurOBP2, sequence (V5T759 entry or part of it): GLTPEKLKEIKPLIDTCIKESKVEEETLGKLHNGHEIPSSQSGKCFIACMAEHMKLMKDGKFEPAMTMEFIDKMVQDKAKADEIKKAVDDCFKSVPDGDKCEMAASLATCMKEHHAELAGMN
Method in brief: as §1

SfurOBP3 = SfurOBP3 (Sogatella furcifera, UniProt V5T818); assay: biochemical; format: binding; details: for Fluorescence competitive binding assay, fluorescence intensity: OBP3, three replicate columns
SfurOBP3, sequence (V5T818 entry or part of it): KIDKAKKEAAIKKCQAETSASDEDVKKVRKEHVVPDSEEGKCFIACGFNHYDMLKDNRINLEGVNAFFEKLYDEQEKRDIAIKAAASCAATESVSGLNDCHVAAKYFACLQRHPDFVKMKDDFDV
Method in brief: as §1

SfurOBP11 = SfurOBP11 (Sogatella furcifera, UniProt V5T6E3); assay: biochemical; format: binding
SfurOBP11, sequence (V5T6E3 entry or part of it): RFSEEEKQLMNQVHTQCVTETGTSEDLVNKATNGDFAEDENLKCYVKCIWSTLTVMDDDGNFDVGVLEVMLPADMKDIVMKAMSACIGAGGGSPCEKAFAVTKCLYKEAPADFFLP
Method in brief: as §1

S. furcifera adults = assay: Y-tube olfactometer behavioral trials; format: in vivo, Sogatella furcifera; details: odorant 50 µL/L vs hexane; adults
Method in brief: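 Single S. furcifera adults (2 days post-emergence, starved 0.5 h) chose between odorant (100 µL of 50 µL/L on filter paper) and hexane control in a glass Y-tube, charcoal-filtered humidified air 300 mL/min per arm, 25 ± 1 °C, 50% RH. Choice scored if insect passed half an arm and stayed >1 min within 10 min; 45 insects per compound, chi-squared test.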

SfurOBP1, sequence (V5T8N5 entry or part of it): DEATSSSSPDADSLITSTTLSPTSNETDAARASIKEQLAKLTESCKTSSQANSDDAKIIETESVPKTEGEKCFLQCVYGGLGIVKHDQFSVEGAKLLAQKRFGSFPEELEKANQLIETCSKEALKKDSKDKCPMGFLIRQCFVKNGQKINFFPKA

CC1=CC[C@@H](C(C)(C)O)CC1 [α-terpineol]
IC50 (SfurOBP1): > 20 µM | Fluorescence competitive binding assay, fluorescence intensity (SfurOBP1; ligand concentration 2 (μM)): 6377 and 6063 and 6691 | Fluorescence competitive binding assay, fluorescence intensity (SfurOBP1; ligand concentration 4 (μM)): 7679 and 7170 and 7304 | Fluorescence competitive binding assay, fluorescence intensity (SfurOBP1; ligand concentration 6 (μM)): 7149 and 7127 and 7171 | Fluorescence competitive binding assay, fluorescence intensity (SfurOBP1; ligand concentration 8 (μM)): 6956 and 7151 and 7930 | Fluorescence competitive binding assay, fluorescence intensity (SfurOBP1; ligand concentration 10 (μM)): 8380 and 7109 and 7555 | Fluorescence competitive binding assay, fluorescence intensity (SfurOBP1; ligand concentration 12 (μM)): 7012 and 7971 and 7255 | Fluorescence competitive binding assay, fluorescence intensity (SfurOBP1; ligand concentration 14 (μM)): 6581 and 7020 and 7628 | Fluorescence competitive binding assay, fluorescence intensity (SfurOBP1; ligand concentration 16 (μM)): 6623 and 7749 and 6480 | Fluorescence competitive binding assay, fluorescence intensity (SfurOBP1; ligand concentration 18 (μM)): 7107 and 7324 and 6847 | Fluorescence competitive binding assay, fluorescence intensity (SfurOBP1; ligand concentration 20 (μM)): 6572 and 7380 and 8412 | IC50 (SfurOBP2): > 20 µM | Fluorescence competitive binding assay, OBP2 (raw fluorescence reading) (SfurOBP2; ligand concentration 2 (unit not given), replicate column 1 of 3): 18212 | Fluorescence competitive binding assay, OBP2 (raw fluorescence reading) (SfurOBP2; ligand concentration 2 (unit not given), replicate column 2 of 3): 17771 | Fluorescence competitive binding assay, OBP2 (raw fluorescence reading) (SfurOBP2; ligand concentration 2 (unit not given), replicate column 3 of 3): 19569 | Fluorescence competitive binding assay, OBP2 (raw fluorescence reading) (SfurOBP2; ligand concentration 4 (unit not given), replicate column 1 of 3): 20390 | Fluorescence competitive binding assay, OBP2 (raw fluorescence reading) (SfurOBP2; ligand concentration 4 (unit not given), replicate column 2 of 3): 18924 | Fluorescence competitive binding assay, OBP2 (raw fluorescence reading) (SfurOBP2; ligand concentration 4 (unit not given), replicate column 3 of 3): 19735 | Fluorescence competitive binding assay, OBP2 (raw fluorescence reading) (SfurOBP2; ligand concentration 6 (unit not given), replicate column 1 of 3): 19485 | Fluorescence competitive binding assay, OBP2 (raw fluorescence reading) (SfurOBP2; ligand concentration 6 (unit not given), replicate column 2 of 3): 20387 | Fluorescence competitive binding assay, OBP2 (raw fluorescence reading) (SfurOBP2; ligand concentration 6 (unit not given), replicate column 3 of 3): 20572 | Fluorescence competitive binding assay, OBP2 (raw fluorescence reading) (SfurOBP2; ligand concentration 8 (unit not given), replicate column 1 of 3): 16903 | Fluorescence competitive binding assay, OBP2 (raw fluorescence reading) (SfurOBP2; ligand concentration 8 (unit not given), replicate column 2 of 3): 17555 | Fluorescence competitive binding assay, OBP2 (raw fluorescence reading) (SfurOBP2; ligand concentration 8 (unit not given), replicate column 3 of 3): 17959 | Fluorescence competitive binding assay, OBP2 (raw fluorescence reading) (SfurOBP2; ligand concentration 10 (unit not given), replicate column 1 of 3): 16415 | Fluorescence competitive binding assay, OBP2 (raw fluorescence reading) (SfurOBP2; ligand concentration 10 (unit not given), replicate column 2 of 3): 15491 | Fluorescence competitive binding assay, OBP2 (raw fluorescence reading) (SfurOBP2; ligand concentration 10 (unit not given), replicate column 3 of 3): 17367 | Fluorescence competitive binding assay, OBP2 (raw fluorescence reading) (SfurOBP2; ligand concentration 12 (unit not given), replicate column 1 of 3): 14309 | Fluorescence competitive binding assay, OBP2 (raw fluorescence reading) (SfurOBP2; ligand concentration 12 (unit not given), replicate column 2 of 3): 15826 | Fluorescence competitive binding assay, OBP2 (raw fluorescence reading) (SfurOBP2; ligand concentration 12 (unit not given), replicate column 3 of 3): 15705 | Fluorescence competitive binding assay, OBP2 (raw fluorescence reading) (SfurOBP2; ligand concentration 14 (unit not given), replicate column 1 of 3): 15282 | Fluorescence competitive binding assay, OBP2 (raw fluorescence reading) (SfurOBP2; ligand concentration 14 (unit not given), replicate column 2 of 3): 15181 | Fluorescence competitive binding assay, OBP2 (raw fluorescence reading) (SfurOBP2; ligand concentration 14 (unit not given), replicate column 3 of 3): 14363 | Fluorescence competitive binding assay, OBP2 (raw fluorescence reading) (SfurOBP2; ligand concentration 16 (unit not given), replicate column 1 of 3): 13073 | Fluorescence competitive binding assay, OBP2 (raw fluorescence reading) (SfurOBP2; ligand concentration 16 (unit not given), replicate column 2 of 3): 13018 | Fluorescence competitive binding assay, OBP2 (raw fluorescence reading) (SfurOBP2; ligand concentration 16 (unit not given), replicate column 3 of 3): 13539 | Fluorescence competitive binding assay, OBP2 (raw fluorescence reading) (SfurOBP2; ligand concentration 18 (unit not given), replicate column 1 of 3): 15519 | Fluorescence competitive binding assay, OBP2 (raw fluorescence reading) (SfurOBP2; ligand concentration 18 (unit not given), replicate column 2 of 3): 15960 | Fluorescence competitive binding assay, OBP2 (raw fluorescence reading) (SfurOBP2; ligand concentration 18 (unit not given), replicate column 3 of 3): 15297 | Fluorescence competitive binding assay, OBP2 (raw fluorescence reading) (SfurOBP2; ligand concentration 20 (unit not given), replicate column 1 of 3): 14913 | Fluorescence competitive binding assay, OBP2 (raw fluorescence reading) (SfurOBP2; ligand concentration 20 (unit not given), replicate column 2 of 3): 14580 | Fluorescence competitive binding assay, OBP2 (raw fluorescence reading) (SfurOBP2; ligand concentration 20 (unit not given), replicate column 3 of 3): 12894 | IC50 (SfurOBP3): 13.6 µM | Fluorescence competitive binding assay, fluorescence intensity (SfurOBP3; ligand concentration 2): 41927 and 42538 and 43146 | Fluorescence competitive binding assay, fluorescence intensity (SfurOBP3; ligand concentration 4): 40833 and 40011 and 41655 | Fluorescence competitive binding assay, fluorescence intensity (SfurOBP3; ligand concentration 6): 42160 and 41392 and 42949 | Fluorescence competitive binding assay, fluorescence intensity (SfurOBP3; ligand concentration 8): 37611 and 37369 and 39854 | Fluorescence competitive binding assay, fluorescence intensity (SfurOBP3; ligand concentration 10): 32220 and 32701 and 33181 | Fluorescence competitive binding assay, fluorescence intensity (SfurOBP3; ligand concentration 12): 30392 and 29567 and 30934 | Fluorescence competitive binding assay, fluorescence intensity (SfurOBP3; ligand concentration 14): 29784 and 30310 and 29247 | Fluorescence competitive binding assay, fluorescence intensity (SfurOBP3; ligand concentration 16): 24410 and 25726 and 27469 | Fluorescence competitive binding assay, fluorescence intensity (SfurOBP3; ligand concentration 18): 26293 and 25033 and 26983 | Fluorescence competitive binding assay, fluorescence intensity (SfurOBP3; ligand concentration 20): 28495 and 26490 and 25496 | binding affinity to SfurOBP3 (in words) (SfurOBP3; SfurOBP3): high binding affinities | IC50 (SfurOBP11): > 20 µM | Fluorescence intensity, fluorescence competitive binding assay, OBP11 (SfurOBP11; ligand concentration 2, replicate 1): 29252 | Fluorescence intensity, fluorescence competitive binding assay, OBP11 (SfurOBP11; ligand concentration 2, replicate 2): 30685 | Fluorescence intensity, fluorescence competitive binding assay, OBP11 (SfurOBP11; ligand concentration 2, replicate 3): 32118 | Fluorescence intensity, fluorescence competitive binding assay, OBP11 (SfurOBP11; ligand concentration 4, replicate 1): 28869 | Fluorescence intensity, fluorescence competitive binding assay, OBP11 (SfurOBP11; ligand concentration 4, replicate 2): 31369 | Fluorescence intensity, fluorescence competitive binding assay, OBP11 (SfurOBP11; ligand concentration 4, replicate 3): 30942 | Fluorescence intensity, fluorescence competitive binding assay, OBP11 (SfurOBP11; ligand concentration 6, replicate 1): 28105 | Fluorescence intensity, fluorescence competitive binding assay, OBP11 (SfurOBP11; ligand concentration 6, replicate 2): 27021 | Fluorescence intensity, fluorescence competitive binding assay, OBP11 (SfurOBP11; ligand concentration 6, replicate 3): 30576 | Fluorescence intensity, fluorescence competitive binding assay, OBP11 (SfurOBP11; ligand concentration 8, replicate 1): 25898 | Fluorescence intensity, fluorescence competitive binding assay, OBP11 (SfurOBP11; ligand concentration 8, replicate 2): 26158 | Fluorescence intensity, fluorescence competitive binding assay, OBP11 (SfurOBP11; ligand concentration 8, replicate 3): 28412 | Fluorescence intensity, fluorescence competitive binding assay, OBP11 (SfurOBP11; ligand concentration 10, replicate 1): 27115 | Fluorescence intensity, fluorescence competitive binding assay, OBP11 (SfurOBP11; ligand concentration 10, replicate 2): 24221 | Fluorescence intensity, fluorescence competitive binding assay, OBP11 (SfurOBP11; ligand concentration 10, replicate 3): 26039 | Fluorescence intensity, fluorescence competitive binding assay, OBP11 (SfurOBP11; ligand concentration 12, replicate 1): 23153 | Fluorescence intensity, fluorescence competitive binding assay, OBP11 (SfurOBP11; ligand concentration 12, replicate 2): 22497 | Fluorescence intensity, fluorescence competitive binding assay, OBP11 (SfurOBP11; ligand concentration 12, replicate 3): 22406 | Fluorescence intensity, fluorescence competitive binding assay, OBP11 (SfurOBP11; ligand concentration 14, replicate 1): 22371 | Fluorescence intensity, fluorescence competitive binding assay, OBP11 (SfurOBP11; ligand concentration 14, replicate 2): 22254 | Fluorescence intensity, fluorescence competitive binding assay, OBP11 (SfurOBP11; ligand concentration 14, replicate 3): 22487 | Fluorescence intensity, fluorescence competitive binding assay, OBP11 (SfurOBP11; ligand concentration 16, replicate 1): 19119 | Fluorescence intensity, fluorescence competitive binding assay, OBP11 (SfurOBP11; ligand concentration 16, replicate 2): 17607 | Fluorescence intensity, fluorescence competitive binding assay, OBP11 (SfurOBP11; ligand concentration 16, replicate 3): 18419 | Fluorescence intensity, fluorescence competitive binding assay, OBP11 (SfurOBP11; ligand concentration 18, replicate 1): 25701 | Fluorescence intensity, fluorescence competitive binding assay, OBP11 (SfurOBP11; ligand concentration 18, replicate 2): 25030 | Fluorescence intensity, fluorescence competitive binding assay, OBP11 (SfurOBP11; ligand concentration 18, replicate 3): 24854 | Fluorescence intensity, fluorescence competitive binding assay, OBP11 (SfurOBP11; ligand concentration 20, replicate 1): 25268 | Fluorescence intensity, fluorescence competitive binding assay, OBP11 (SfurOBP11; ligand concentration 20, replicate 2): 25350 | Fluorescence intensity, fluorescence competitive binding assay, OBP11 (SfurOBP11; ligand concentration 20, replicate 3): 25312 | number of insects choosing hexane arm (S. furcifera adults): 14 | number of insects choosing volatilies arm (S. furcifera adults): 11 | number of insects failed (no choice) (S. furcifera adults): 15
